The source made the active and inactive calls.
What was measured:
[1] = test system: Streptococcus; assay: GAS UMAA2166 growth inhibition – luminescence, BacTiterGlo, counter-screen for streptokinase expression inhibitor project, dose response (AID 1915); assay type: functional, organism-based;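 note: potency for reduction of bacterial viability or growth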
[2] = target: T1, Replicative DNA helicase DnaB (Mycobacterium tuberculosis, UniProt P9WMR3); assay: DnaB intein splicing inhibitors, dose response, biochemical, cell-free fluorescence (AID 449749); assay type: functional
T1 sequence (P9WMR3 whole entry): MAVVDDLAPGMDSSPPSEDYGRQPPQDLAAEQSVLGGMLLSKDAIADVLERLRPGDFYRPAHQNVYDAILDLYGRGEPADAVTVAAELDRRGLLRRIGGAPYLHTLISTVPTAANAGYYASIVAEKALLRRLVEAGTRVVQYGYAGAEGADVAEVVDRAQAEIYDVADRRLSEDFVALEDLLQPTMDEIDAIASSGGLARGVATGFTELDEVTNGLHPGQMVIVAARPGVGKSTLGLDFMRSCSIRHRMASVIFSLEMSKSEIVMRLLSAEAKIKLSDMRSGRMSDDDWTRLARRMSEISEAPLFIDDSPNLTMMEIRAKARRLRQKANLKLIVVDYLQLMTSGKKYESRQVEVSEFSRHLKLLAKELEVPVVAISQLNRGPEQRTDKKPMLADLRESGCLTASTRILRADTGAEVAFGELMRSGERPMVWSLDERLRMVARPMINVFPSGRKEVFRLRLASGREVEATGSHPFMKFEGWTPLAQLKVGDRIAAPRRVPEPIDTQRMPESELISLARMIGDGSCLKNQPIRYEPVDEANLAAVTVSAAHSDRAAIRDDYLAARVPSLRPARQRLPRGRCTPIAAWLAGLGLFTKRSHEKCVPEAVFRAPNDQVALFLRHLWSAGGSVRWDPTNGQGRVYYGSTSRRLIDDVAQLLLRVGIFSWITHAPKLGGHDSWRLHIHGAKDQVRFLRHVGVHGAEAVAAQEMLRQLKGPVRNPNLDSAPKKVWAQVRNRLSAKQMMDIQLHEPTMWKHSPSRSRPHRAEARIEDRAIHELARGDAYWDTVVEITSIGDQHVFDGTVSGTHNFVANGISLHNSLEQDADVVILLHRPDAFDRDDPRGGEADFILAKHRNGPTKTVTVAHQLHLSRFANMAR

COc1ccc(CNC(=O)c2c(C)oc3c2C(=O)c2ccccc2C3=O)cc1
EC50 [1]: 6.35 µM (active)
AC50 [2]: 13.3 µM (active)

CCSc1nsc(NC(=O)Nc2cccc(F)c2)n1
EC50 [1]: 20.7 µM (active)

CC(C)c1ccc(S(=O)(=O)/N=C2\C=C(NS(=O)(=O)c3ccccc3)C(=O)c3ccccc32)cc1
AC50 [2]: 3.92 µM (active)
